Experiments:
SK-N-SH cells [1] = test: annexin V assay by flow cytometry; assay type: cell-based, human; settings: 25 μM, 48 hours
Experimental: SK-N-SH cells at a concentration of 1.0×10^5 cells per ml were seeded in 12-well plates containing 1 ml of culture medium per well. After 24 hours, 10 μl of syringolin A (25 μM final concentration) or an equal volume of sterile water (control) was added per well. Cells were incubated for 48 hours, trypsinized, washed twice in phosphate-buffered saline (PBS) and were counted; 1-2×10^5 cells suspended in 0.1 ml of 1× assay buffer per vial according to the manufacturer's instructions (BD Biosciences, Palo Alto, Calif.). Cells were stained with annexin V-FITC (5 μl) for 15 minutes in the dark, at room temperature. Assay buffer (0.4 ml) was added, and 5000 cells were analyzed using a FACScan flow cytometer (Becton Dickinson, San Jose, Calif.). The […] program was used for data analysis.

ubiquitinated proteins = test: immunoblot of total ubiquitinated proteins in SK-N-SH cells; assay type: cell-based, human; settings: for increase of ubiquitinated proteins: 24 hours of treatment
Experimental: As inhibition of the proteasome is expected to result in increased levels of ubiquitinated proteins (Meng, et al. 1999. Proc. Natl. Acad. Sci. U.S.A. 96:10403-10408, which is incorporated herein by reference in its entirety), the effect of syringolin A on total ubiquitinated protein accumulation was analyzed by immunoblot analysis. To do so, SK-N-SH cells were seeded in 6-well cell culture plates at a concentration of 3.8×10^5 cells per ml (1.98 ml per well). After 24 hours, 20 μl of syringolin A (final concentration 25 μM) or cell culture medium (control, C) was added. For time-course experiments, cell treatments were staggered in order to process all samples at the same time after 24 hours. Cell lysates were prepared as previously reported (Wallick, et al. 2005. Oncogene 24:5606-5618, which is incorporated herein by reference in its entirety). Sodium dodecyl sulfate-polyacrylamide gel electrophoresis (SDS-PAGE), electro transfer to PVDF Immobilon-P membranes (Millipore) and antibody incubations were performed according to standard procedures. The primary antibodies used were rabbit whole serum ubiquitin (1:150) (U5379; Sigma), mouse monoclonal tumor suppressor protein p53 (1:250) (se-126; Santa Cruz Biotechnology), and rabbit monoclonal α-tubulin (1:1,500) (11H10; Cell Signaling Technology). Horse radish peroxidase (HRP)-conjugated anti-mouse or anti-rabbit antibodies (1:5,000) were used as secondary antibodies. Membranes were developed using the ECL Plus kit following the manufacturer's protocol (Amersham Biosciences) and exposed to Blue Lite Autorad Film (ISC BioExpress). Membranes were stripped with ECL stripping buffer (62.5 mM Tris-HCL, pH 6.7, 2% SDS, 100 mM β-mercaptoethanol) for 20 min at 55° C. and sequentially re-probed with the next antibody.
To further examine the inhibitory effect, whole cell lysates of GlbA-treated or untreated control cells were analyzed by Western blot and ubiquitinated proteins detected at endogenous levels.

[2] = test system: β-actin, procaspase-3 and protein kinase Akt/PKB; test: Western blot of β-actin, procaspase-3 and Akt/PKB in syringolin A-treated cells; assay type: cell-based, human; settings: 20 μM, 48 hours
TH-MYCN transgenic mouse = test: tumor reduction in TH-MYCN mouse model of human neuroblastoma; assay type: in vivo; settings: homozygous mice, i.p. and/or i.v., every 72 hours for 3 to 6 weeks, vs untreated mice
From the text: The TH-MYCN transgenic mouse is a well-established neuroblastoma mouse model (Hansfored, et al. 2004. PNAS 101(34):12664-12669; Weiss, et al. 2007. Cancer Res 67(19):9435-9442; Weiss, et al. 2000. Cancer Res 6″2483-2487, each of which is incorporated herein by reference in its entirety). The tumors are caused by targeted expression of MYCN to the neural crest under the control of the rat tyrosine hydroxylase promoter, where the mice develop a tumor phenotype that closely resembles the human disease. The tumors in this strain of mouse generally develop in the abdominal and thoracic areas. TH-MYCN breeder pairs are supplied as hemizygote (129×1/SvJ-Tg(TH-MYCN)41Waw) and a wild type mate (129×1/SvJ).
Test compounds are administered to homozygous mice at a dose that is developed based upon the results of the initial dose and toxicity study (Example 15). Two to four doses per compound are administered by i.p. and/or i.v. methods into homozygous mice when palpable tumors begin to form. Vehicle is delivered […] as a control. Further doses are administered thereafter every 72 hours for 3 to 6 weeks. Between eight to twelve mice are tested in the study for administration of each compound. […] At the conclusion of the study, the mice are sacrificed and tumor size and number of tumors are assessed.

SK-N-SH cells [3] = settings: values from previous studies with SylA (Coleman et al. 2006); cited from earlier work
[4] = test system: cells colonized by powdery mildew in wheat; settings: literature (Amrein 2004; Waspi 1998-2001); cited from earlier work
[5] = test system: microtubule-associated protein 1 light chain 3 (LC3); test: immunoblot of LC3 conversion (autophagy) in SK-N-SH cells; assay type: cell-based, human
Experimental: To verify whether autophagy is induced in GlbA-treated cells, levels of microtubule-associated protein 1 light chain 3 (LC3), a reliable marker of autophagosomes, were measured. […] Therefore, this characteristic conversion of LC3 can be used to monitor autophagic activity. SK-N-SH cells were treated with GlbA in the presence or absence of 3-MA, and cell lysates were probed with LC3.

Akt/PKB = test: Western blot of Akt/PKB and phosphorylation at Ser473 in SK-N-SH cells; assay type: cell-based, human
Experimental: Since Akt/PKB is a well-characterized anti-apoptotic protein, total Akt/PKB levels were measured in treated cells in addition to determining the protein's phosphorylation status at residue Ser473, which is indicative of its activity. SK-N-SH cells were treated with GlbA in the presence or absence of 3-MA, and cell lysates were analyzed for Akt/PKB.

Structure (SMILES)	annexin V binding (SK-N-SH cells [1])	accumulation of ubiquitinated proteins (ubiquitinated proteins; 25 μM, time-course)	increase of ubiquitinated proteins (ubiquitinated proteins) [fold]	levels of β-actin, procaspase-3 and protein kinase Akt/PKB [2]	size and number of tumors (TH-MYCN transgenic mouse)	EC50 (SK-N-SH cells [3]) [µM]	hypersensitive cell death [4]	lower concentration of GlbA inducing effects comparable to SylA (ubiquitinated proteins; ubiquitinated proteins) [fold]	GlbA-induced autophagy after pre-treatment with 3-MA ([5]; GlbA with 3-MA pre-treatment)	LC3-II amount / conversion of LC3 ([5]; compared to untreated control cells)	Akt/PKB phosphorylation at Ser473 (Akt/PKB; GlbA treatment)	total Akt/PKB levels (Akt/PKB; GlbA treatment)	Akt/PKB phosphorylation at Ser473 after pre-treatment with 3-MA (Akt/PKB; GlbA with 3-MA pre-treatment)
CC(C)[C@H](NC(=O)N[C@H](C(=O)N[C@H]1/C=C/CCNC(=O)/C=C/[C@H](C(C)C)NC1=O)C(C)C)C(=O)O [syringolin A]	strongly bound annexin V	time-dependent accumulation of ubiquitinated proteins	3	decreased	effective in reducing both the size and number of tumors	~20	induce hypersensitive death of cells colonized by powdery mildew in wheat						
CCCCCCC/C=C/C=C/C(=O)N[C@H](C(=O)N[C@H]1C[C@@H](O)CCNC(=O)/C=C/[C@H](C)NC1=O)[C@@H](C)O [glidobactin A]			3		effective in reducing both the size and number of tumors			100	reverted GlbA-induced autophagy	larger amounts of LC3-II	phosphorylated at Ser473	slight decrease	prevented

From patent US8597904B2, “Pharmaceutical compositions for the treatment of conditions responsive to proteasome inhibition” (priority 2007, dated 2013)
